Reference: paper PMC6315362, “Cytotoxic Potential of the Novel Horseshoe Crab Peptide Polyphemusin III” (Marine Drugs, 2018)
Where “and” joins values, the source holds several entries; their conditions need not be identical. Equal values may be shown once. Where a SMILES comes first, the peptide text is derived from it. Bridges are numbered along the chain shown (N, C = ends).

How the values were obtained:
E. coli ML-35p = experiment: Antimicrobial assay, broth microdilution MIC; assay type: cell-based, Escherichia coli; details: Gram -, MH medium with NaCl, peptide diluted in 0.1% BSA, 10^6 CFU/mL, 24 h 37 °C, median of three independent triplicated experiments
Protocol: (§1) Bacterial test cultures were grown in the Mueller-Hinton (MH) medium at 37 °C to mid-log phase and then diluted with the 2 x MH medium supplemented with 1.8% NaCl. 50 µL of the bacterial suspension with a final cell concentration of 10^6 CFU/mL were added to aliquots of 50 µL of the peptide solutions and serially diluted with sterilized 0.1% bovine serum albumin in 96-well flat-bottom polystyrene microplates (Eppendorf, Hamburg, Germany). Bacterial cells were incubated for 24 h at 37 °C and 900 rpm on the plate thermoshaker (Biosan, Riga, Latvia). The minimum inhibitory concentrations (MIC) were determined as the lowest peptide concentration that prevented growth of a test microorganism observed as visible turbidity. The results were expressed as median values of three independent triplicated experiments. Assessment of antimicrobial activities of the recombinant PM III, other polyphemusins, and tachyplesins was conducted against Gram-negative (Escherichia coli ML-35p, Klebsiella pneumoniae (clinical isolate, CI 287), Pseudomonas aeruginosa PAO1) and Gram-positive (Staphylococcus aureus ATCC 29213, Staphylococcus aureus 209P, Bacillus subtilis B-886, Micrococcus luteus B-1314) bacteria.

[1] = system: NHA (normal human astrocytes); assay type: cell-based; details: NHA normal cells; MTT after 48 h, DMEM/F12 with 10% FBS; mean ± SD of at least three independent experiments
Protocol: (§2) Cytotoxic activities of PM III, its isoforms, and tachyplesins against seven human cell lines were evaluated. Four cancer (HL-60 acute promyelocytic leukemia, HeLa cervix adenocarcinoma, SK-BR-3 breast adenocarcinoma, A549 lung carcinoma), one transformed (HEK 293T transformed human embryonic kidney), and two normal human cell lines (HEF human embryonic fibroblasts and NHA normal human astrocytes) were used for these experiments. Cytotoxicity was measured by incubating the cells with serial dilutions of PM I, PM II, PM III, TP I, TP II, or TP III samples followed by MTT assay after 48 h. The half-maximal inhibitory concentrations (IC50) were measured as the peptide concentration at which cell viability was reduced by 50% in comparison to untreated cells (Table 3).
(§3) The following tumor and transformed cell lines were used in this study: HL-60 (acute promyelocytic leukemia), HeLa (human cervix adenocarcinoma cells), SK-BR-3 (human breast adenocarcinoma cells), A549 (human lung carcinoma cells), HEK 293T (transformed human embryonic kidney cells), HEF (human embryonic fibroblasts), and NHA (normal human astrocytes) were used as normal cell lines. Tumor and transformed cell lines were obtained from the American Type Culture Collection (ATCC; www.atcc.org). Primary cells HEF (normal human embryonic fibroblasts derived from human embryonic stem cells) and NHA (normal human astrocytes derived from human fetal brain tissue) were obtained and cultured according to the corresponding protocol. Briefly, cells were cultured in DMEM/F12 (1:1) or RPMI-1640 medium containing 10% fetal bovine serum (Invitrogen, USA) at 37 °C in the atmosphere containing 5% CO2 and 95% air according to standard mammalian tissue culture protocols and using a sterile technique. All cell lines were tested by using the LookOut® Mycoplasma PCR Detection Kit (Sigma-Aldrich, St. Louis, MO, USA) according to the manufacturer’s protocol and found to be free of Mycoplasma infection.
(§4) The colorimetric 3-(4,5-dimethylthiazol-2-yl)-2,5-diphenyltetrazolium bromide (MTT) dye reduction assay was used to determine the cytotoxicity of the polyphemusins and tachyplesins. Cells (3 × 10^3–6 × 10^3 per well) were placed into 96-well plates in Dulbecco’s modified Eagle’s medium (DMEM/F12) supplemented with 10% fetal bovine serum (FBS). After incubation in the atmosphere containing 5% CO2 and 95% air at 37 °C overnight, the media were discarded, and polyphemusins or tachyplesins solutions were added to the cell cultures up to final concentrations of 2.5, 5, 10, 25, and 50 μM in a final volume of 0.1 mL DMEM/F12 with 10% FBS. HL-60 cells (4 × 10^4 in 50 μL) were added to two-time serial dilutions of polyphemusins solutions at a final concentration of 1.25, 2.5, 5, 10, 25, and 50 μM in 50 μL RPMI-1640 with 10% FBS. 48 hours later, 20 μL of MTT (5 mg/mL) was added into each well and the plates were incubated for 3 h at 37 °C. The plates with HL-60 cells were centrifuged for 10 min at 300 g. The media were discarded and 0.1 mL of dimethyl sulfoxide and isopropanol mixture at a ratio of 1:1 (v/v) was added to each well to dissolve the crystallized formazan. The absorbance at 570 nm was measured by a microplate reader (Eppendorf, Hamburg, Germany).

[2] = system: HeLa (human cervix adenocarcinoma cells); assay type: cell-based; details: MTT after 48 h, DMEM/F12 with 10% FBS, mean ± SD of at least three independent experiments
Protocol: as §2, §3, §4

[3] = system: HEF (human embryonic fibroblasts); assay type: cell-based; details: HEF normal cells; MTT after 48 h, DMEM/F12 with 10% FBS; mean ± SD of at least three independent experiments
Protocol: as §2, §3, §4

[4] = system: HEK 293T (transformed human embryonic kidney cells); assay type: cell-based; details: MTT after 48 h, DMEM/F12 with 10% FBS, mean ± SD of at least three independent experiments
Protocol: as §2, §3, §4

[5] = system: SK-BR-3 (human breast adenocarcinoma cells); assay type: cell-based; details: MTT after 48 h, DMEM/F12 with 10% FBS, mean ± SD of at least three independent experiments
Protocol: as §2, §3, §4

M. luteus B-1314 = experiment: Antimicrobial assay, broth microdilution MIC; assay type: cell-based, Micrococcus luteus; details: M. luteus B-1314, Gram +, MH medium with NaCl, 24 h 37 °C, median of three independent triplicated experiments
Protocol: as §1

[6] = system: HL-60 (acute promyelocytic leukemia); assay type: cell-based, human; details: MTT after 48 h, RPMI-1640 with 10% FBS, mean ± SD of at least three independent experiments
Protocol: as §2, §3, §4

B. subtilis B-886 = experiment: Antimicrobial assay, broth microdilution MIC; assay type: cell-based, Bacillus subtilis; details: B. subtilis B-886, Gram +, MH medium with NaCl, 24 h 37 °C, median of three independent triplicated experiments
Protocol: as §1

| Structure (SMILES) | MICs (E. coli ML-35p) [µM] | IC50 [1] [µM] | IC50 [2] [µM] | IC50 [3] | IC50 [4] [µM] | IC50 [5] [µM] | MICs (M. luteus B-1314) [µM] | IC50 [6] [µM] | MICs (B. subtilis B-886) [µM] |
| --- | --- | --- | --- | --- | --- | --- | --- | --- | --- |
| CC(C)[C@@H]1NC(=O)[C@H](CCCNC(=N)N)NC(=O)[C@H](Cc2ccccc2)NC(=O)[C@@H](NC(=O)[C@H](Cc2c[nH]c3ccccc23)NC(=O)[C@H](CCCNC(=N)N)NC(=O)[C@@H](N)CCCNC(=N)N)CSSC[C@@H](C(=O)N[C@@H](CCCNC(=N)N)C(=O)O)NC(=O)[C@H](CCCCN)NC(=O)[C@H](CCCNC(=N)N)NC(=O)[C@H](Cc2ccc(O)cc2)NC(=O)[C@@H]2CSSC[C@H](NC1=O)C(=O)N[C@@H](Cc1ccc(O)cc1)C(=O)N[C@@H](CCCNC(=N)N)C(=O)NCC(=O)N[C@@H](Cc1ccccc1)C(=O)N2 [PM I, polyphemusin I] (H-RRWCFRVCYRGFCYRKCR-OH; disulfide 4-17, 8-13 (inferred); N-terminus assumed) | 0.062 | 14.5 ± 1.6 | 12.5 ± 0.9 | 8.3 ± 0.7 µM | 9.4 ± 1.5 | 16 ± 0.6 | 0.5 | 7.2 ± 0.5 | 0.25 |
| CC(C)[C@@H]1NC(=O)[C@H](CCCNC(=N)N)NC(=O)[C@H](Cc2ccccc2)NC(=O)[C@@H](NC(=O)[C@H](Cc2c[nH]c3ccccc23)NC(=O)[C@H](CCCNC(=N)N)NC(=O)[C@@H](N)CCCNC(=N)N)CSSC[C@@H](C(=O)N[C@@H](CCCNC(=N)N)C(=O)O)NC(=O)[C@H](CCCCN)NC(=O)[C@H](CCCNC(=N)N)NC(=O)[C@H](Cc2ccc(O)cc2)NC(=O)[C@@H]2CSSC[C@H](NC1=O)C(=O)N[C@@H](Cc1ccc(O)cc1)C(=O)N[C@@H](CCCCN)C(=O)NCC(=O)N[C@@H](Cc1ccccc1)C(=O)N2 [PM II, polyphemusin II] (H-RRWCFRVCYKGFCYRKCR-OH; disulfide 4-17, 8-13 (inferred); N-terminus assumed) | 0.031 | 18.3 ± 1.4 | 16.4 ± 1.3 | 7 µM and 9.7 µM | 11.3 ± 1.6 | 17.3 ± 0.6 | 1 | 7.2 ± 0.5 | 0.5 |
| CC(C)[C@@H]1NC(=O)[C@H](CCCNC(=N)N)NC(=O)[C@H](Cc2ccccc2)NC(=O)[C@@H](NC(=O)CNC(=O)[C@H](CCCNC(=N)N)NC(=O)[C@@H](N)CCCNC(=N)N)CSSC[C@@H](C(=O)N[C@@H](CCCNC(=N)N)C(=O)O)NC(=O)[C@H](CCCNC(=N)N)NC(=O)[C@H](CCC(N)=O)NC(=O)[C@H](Cc2ccccc2)NC(=O)[C@@H]2CSSC[C@H](NC1=O)C(=O)N[C@@H](Cc1ccc(O)cc1)C(=O)N[C@@H](CCCNC(=N)N)C(=O)NCC(=O)N[C@@H](Cc1ccccc1)C(=O)N2 [PM III, polyphemusin III] (H-RRGCFRVCYRGFCFQRCR-OH; disulfide 4-17, 8-13 (inferred); N-terminus assumed) | 0.25 | 7.5 ± 0.5 | 6 ± 0.2 | 7 ± 0.4 µM | 7.3 ± 0.4 | 9.9 ± 0.1 | 0.5 | 2.5 ± 0.1 | 0.5 |
| CC[C@H](C)[C@@H]1NC(=O)CNC(=O)[C@H](CCCNC(=N)N)NC(=O)[C@H](Cc2ccc(O)cc2)NC(=O)[C@@H]2CSSC[C@H](NC1=O)C(=O)N[C@@H](Cc1ccc(O)cc1)C(=O)N[C@@H](CCCNC(=N)N)C(=O)N[C@@H](CCCNC(=N)N)C(=O)N[C@H](C(=O)N[C@@H](CCCNC(=N)N)C(=O)O)CSSC[C@H](NC(=O)[C@H](Cc1c[nH]c3ccccc13)NC(=O)[C@@H](N)CCCCN)C(=O)N[C@@H](Cc1ccccc1)C(=O)N[C@@H](CCCNC(=N)N)C(=O)N[C@@H](C(C)C)C(=O)N2 [TP I, tachyplesin I] (H-KWCFRVCYRGICYRRCR-OH; disulfide 3-16, 7-12 (inferred); N-terminus assumed) | 0.062 | 24.7 ± 1.8 | 24.2 ± 1.7 | 13 ± 1.5 µM | 23.5 ± 1.2 | 30.1 ± 1.9 | 1 | 4.8 ± 0.3 | 0.5 |
| CC[C@H](C)[C@@H]1NC(=O)CNC(=O)[C@H](CCCNC(=N)N)NC(=O)[C@H](Cc2ccc(O)cc2)NC(=O)[C@@H]2CSSC[C@H](NC1=O)C(=O)N[C@@H](Cc1ccc(O)cc1)C(=O)N[C@@H](CCCNC(=N)N)C(=O)N[C@@H](CCCCN)C(=O)N[C@H](C(=O)N[C@@H](CCCNC(=N)N)C(=O)O)CSSC[C@H](NC(=O)[C@H](Cc1c[nH]c3ccccc13)NC(=O)[C@@H](N)CCCNC(=N)N)C(=O)N[C@@H](Cc1ccccc1)C(=O)N[C@@H](CCCNC(=N)N)C(=O)N[C@@H](C(C)C)C(=O)N2 [TP II, tachyplesin II] (H-RWCFRVCYRGICYRKCR-OH; disulfide 3-16, 7-12 (inferred); N-terminus assumed) | 0.062 | 29.4 ± 1.7 | 24.4 ± 3 | 17.7 ± 1.2 µM | 24.6 ± 1.7 | 34 ± 1.3 | 1 | 5.6 ± 0.5 | 0.5 |
| CC[C@H](C)[C@@H]1NC(=O)CNC(=O)[C@H](CCCNC(=N)N)NC(=O)[C@H](Cc2ccc(O)cc2)NC(=O)[C@@H]2CSSC[C@H](NC1=O)C(=O)N[C@@H](Cc1ccc(O)cc1)C(=O)N[C@@H](CCCNC(=N)N)C(=O)N[C@@H](CCCCN)C(=O)N[C@H](C(=O)N[C@@H](CCCNC(=N)N)C(=O)O)CSSC[C@H](NC(=O)[C@H](Cc1c[nH]c3ccccc13)NC(=O)[C@@H](N)CCCCN)C(=O)N[C@@H](Cc1ccccc1)C(=O)N[C@@H](CCCNC(=N)N)C(=O)N[C@@H](C(C)C)C(=O)N2 [TP III, tachyplesin III] (H-KWCFRVCYRGICYRKCR-OH; disulfide 3-16, 7-12 (inferred); N-terminus assumed) | 0.062 | 21.3 ± 1.2 | 13.7 ± 1.3 | 14.1 ± 1.2 µM | 19.7 ± 1.9 | 27.5 ± 0.8 | 2 | 5 ± 0.4 | 1 |
